What was measured:
quadruplex RNA F-EBNA1-T = assay: FRET-melting assay; type: binding, Epstein-Barr virus; settings: for ΔTm, ligand + 3 μM ds26 / ΔTm, ligand + 10 μM ds26 / ΔTm, ligand alone: F-EBNA1-T 0.2 μM, ligand 1.0 μM, K+10 buffer; for ΔTm, ligand + 3 μM ds26: competitor DNA ds26 3 μM (15 eq); for ΔTm, ligand + 10 μM ds26: competitor DNA ds26 10 μM (50 eq); for ΔTm, ligand alone: no competitor; for affinity for the G-quadruplex structure of EBNA1 (in words, FRET-melting data): conclusion from Table 2
Text: The FRET-melting assay is based on thermal denaturation of G4-ARN monitored by fluorescence due to the phenomenon of Förster Resonance Energy Transfer (FRET). This method uses quadruplex-forming RNA sequence dual-labeled with two different fluorophores: a donor (fluorescein, or FAM) and an acceptor (tetramethylrhodamine, or TAMRA). When RNA is folded into G-quadruplex (G4) structure, fluorescence of the donor fluorophore is weak due to strong energy transfer (FRET) to the neighboring acceptor fluorophore. Upon thermal denaturation, the quadruplex unfolds and the fluorophores are separated, leading to decrease of the FRET effect and increase of the fluorescence of the donor (see FIG. 2). By following the fluorescence of the donor as a function of temperature, a melting curve of the G-quadruplex RNA can be obtained, which allows determining the temperature of denaturation at which 50% of the quadruples is unfolded (T1, FIG. 3).
The FRET-melting assay allows assessing the affinity of small molecules (ligands) for the G4-RNA. The addition of a G4-ligand stabilizes the G-quadruplex structure and increases the denaturation temperature. The temperature of denaturation in the presence of ligands (T2) can be compared with that obtained in the absence of ligands (T1). The value of ΔTm (ΔTm=T2−T1) represents a measure of the affinity of the compounds of the invention (ligand). Generally, values of ΔTm>20° C. correspond to ligands of high affinity.
The dual-labeled oligoribonucleotide EBNA1 [5′-FAM-r(GGGGCAGGAGCAGGAGGA)-TAMRA-3′] (SEQ ID no 2) purified by reversed-phase HPLC was purchased from Eurogentec. The donor fluorophore was 6-carboxyfluorescein (FAM) and the acceptor fluorophore was 6-carboxytetramethylrhodamine (TAMRA).
Stock solutions of the ligands (2 mM in DMSO) were used for FRET-melting assay, unless otherwise stated, and were stored at −20° C. FRET-melting measurements are performed on 7900HT Fast Real-Time PCR System (Applied Biosystems) with Microamp Fast optical 96-well reaction plate (Applied Biosystems).
Preparation of Oligonucleotides For FRET-melting assay, oligoribonucleotide F-EBNA1-T was dissolved in K^+10 buffer (10 mM lithium cacodylate buffer, pH 7.3, supplemented with 10 mM KCl and 90 mM LiCl).
Prior to use, all oligonucleotides were pre-treated by heating at 95° C. for 5 min, then rapidly cooled to 4° C. to favor the intramolecular folding by kinetic trapping. Duplex-DNA ds26 (5′CAA-TCG-GAT-CGA-ATT-CGA-TCC-GAT-TG-3′) (SEQ ID no 3) was prepared by heating this self-complementary strand at 90° C. for 5 min in K^+10 buffer followed by a slow cooling over 6 h.
FRET-melting assay is performed in 96-well plates on real time PCR apparatus 7900HT Fast Real-Time PCR System using the heating ramp as follow: 5 min at 25° C., then increase of 0.5° C. every minute until 95° C. Each experimental condition was tested in duplicated in a volume of 25 μL for each sample. The 96-well plates (Applied Biosystems) were prepared by aliquoting the annealed RNA (24 μL of 0.21 μM solution in K^+10 buffer) into each well, followed by 1 μL of ligand solution (25 μM in K^+10 buffer). For competition experiments, duplex competitors were added to 200 nM quadruplex sequences at final concentrations of 3.0 μM (15 eq) and 10.0 μM (50 eq), with a total reaction volume of 25 μL, with the labeled oligoribonucleotide (0.2 μM) and the ligand (1.0 μM). Measurements were made with excitation at 492 nm and detection at 516 nm. The change in the melting temperature in the presence of 1.0 μM putative ligand, ΔTm (1.0 μM), was calculated from at least two experiments by subtraction of the blank from the averaged melting temperature of each compound (1.0 μM).
The results are shown in FIG. 4 and in Table 2 below (higher ΔTm values indicate higher affinity of the compounds to G4-RNA structure of EBNA1).

[1] = tested on: GAr-based inhibition of translation; assay: Yeast assay (assays described in Lista et al.); type: cell-based, Saccharomyces cerevisiae
Text: A yeast-based (Saccharomyces cerevisiae) assay that recapitulates all the aspects of the GAr-based inhibition of translation, including the GAr-length dependency, has been developed, that allowed understanding the mechanisms of GAr-mediated mRNA translation—suppression in cis, as well as the cellular factors involved (Lista et al. Biotechnol J 2015, 10, 1670-1681). This assay was successfully used to identify small molecular weight compounds that can stimulate EBNA1 expression both in yeast and mammalian cells and that relieve GAr-based limitation of antigen presentation (Voisset et al. Dis Model Mech 2014, 7, 435-444).
Compounds 1a, 2a, 4a, 5a, 7a, 10a and 11a were also tested in the various assay described in Lista et al. (Nat Commun 2017, 8, 16043).

[2] = tested on: GAr-limited antigen presentation; assay: Antigen presentation assay (IL-2 ELISA); type: cell-based; settings: 5 μM and 10 μM, compared to DMSO-treated cells
Procedure: Stars indicate significant results (the higher the number of stars, the more significant). […]ns[…] stands for not significant.
The aim of this assay was to determine if compounds 2a and 11a were able to interfere (suppress) with the GAr-dependent limitation of EBNA1-derived antigenic peptid presentation. H1299 cells were transfected with 235GAr-OVA or OVA plasmids and murine MHC class I Kb plasmids. T-cell proliferation is determined using ELISA assay for Mouse IL-2 (IL-2 is a potent lymphoid cell growth factor which exerts its biological activity primarily in T cell). There is therefore a correlation between the quantity of IL2 released and the T-cell proliferation.
Quantifications of IL2 release following treatment with compounds 2a or 11a, as compared to DMSO-treated cells are shown in the FIG. 7. […] These compounds thus increase T-cell proliferation.

Compound | ΔTm, ligand + 3 μM ds26 (quadruplex RNA F-EBNA1-T) | ΔTm, ligand + 10 μM ds26 (quadruplex RNA F-EBNA1-T) | ΔTm, ligand alone (quadruplex RNA F-EBNA1-T) | affinity for the G-quadruplex structure of EBNA1 (in words, FRET-melting data) (quadruplex RNA F-EBNA1-T) | result in the yeast assay [1] | release of IL-2, H1299 cells expressing 235GAr-OVA [2] | release of IL-2, OVA-expressing cells [2]
C[n+]1ccc(C=NNC(=O)c2cccc(C(=O)NN=Cc3cc[n+](C)c4ccccc34)n2)c2ccccc21.[I-].[I-] [Compound 2a, N′^2, N′^6-Bis[(1-methylquinolinium-4-yl)methylene]pyridine-2,6-dicarbohydrazide iodide] | 16.1 ± 0.4 °C | 14.2 ± 0.7 °C | 16.4 ± 0.4 °C | particularly high affinity | positive results | significantly increased (two-fold change) | no effect
C[n+]1ccc(C=NNC(=O)c2ccc3ccc4ccc(C(=O)NN=Cc5cc[n+](C)c6ccccc56)nc4c3n2)c2ccccc21.[I-].[I-] [Compound 11a, N′^2,N′^9-Bis[(1-methylquinolinium-4-yl)methylene]-1,10-phenanthroline-2,9-dicarbohydrazide iodide] | 21.1 ± 0.6 °C | 19.3 ± 1.1 °C | 21.5 ± 0.2 °C | particularly high affinity | positive results | significantly increased (two-fold change) | no effect
